Experimental data as given in paper PMC5045922, “In vivo pharmacological activity and biodistribution of S-nitrosophytochelatins after intravenous and intranasal administration in mice” (Nitric Oxide, 2016).
Read-outs that look alike come from different tables or passages of the source.

Tests used:
[1] = parameters: method as in PMID 26686469; conditions: after equilibration of the NO moiety amongst plasma thiols via S-transnitrosylation; cited from earlier work
[2] = cited from earlier work
[3] = CD-1, mouse, in vivo, iv
CD-1 mice = type: in vivo; conditions: for Tmax (time at which the maximum response occurred): in vivo, iv
Method: In vivo blood pressure was monitored in anaesthetized animals as previously described. A total of 12 wild type male mice were used (n = 3/group) where the groups represented the vehicle (0.9% saline) control, GSNO, SNOPC-2 and SNOPC-6 treatments, respectively. Mean arterial pressure was recorded in anaesthetized mice (2% isoflurane in air) on a homeothermically controlled heating blanket (Harvard Instruments, Edenbridge, UK). A 1.2F microtip pressure catheter (Scisense, Transonic Systems, Ithaca, NY, USA) was inserted into the right carotid artery and basal arterial pressure was recorded for 5 min. Test drug solutions (50 μL containing 500 μmol/L NO ≈ 1 μmol NO/kg body weight) or control (saline) solution were directly injected into the jugular vein using a 30 gauge needle inserted through the underlying muscle. Arterial blood pressure was recorded continuously for a further 5 min following drug administration using a PowerLab data acquisition system and Chart 7 software (ADInstuments, Oxford, UK).

[4] = parameters: species or system mice; conditions: CD-1, mouse, in vivo
Method: A total of 48 mice were used (n = 3/group/time point) where the groups represented vehicle (0.9%saline) control, GSNO, SNOPC-2 and SNOPC-6 treatments (n = 3 per group), respectively. A time course study (0, 1, 5 and 15 min) was carried out to characterize the NOx biodistribution after i.n. administration of compounds. Prior to drug administration, mice were anaesthetized by inhaling 2% isoflurane in air via a nose cone. A single volume (20 μL) of test solution in saline (containing 1.25 mmol/L NO ≈ 1 μmol NO/kg body weight) or control (saline) solution was then administered drop wise into the nasal cavity using a micropipette after removing the mouse momentarily from the anaesthetic mask cone and holding it in an upright position. At the appropriate time point animals were exsanguinated by terminal bleed under anaesthesia. Blood and organ samples were collected and processed as described in section 2.4.
Prior to quantification, tissue samples were thawed, weighed and homogenized at 100 mg tissue/mL in phosphate buffered saline (PBS; pH 7.4) using a Silverson model L4RT laboratory homogenizer. Homogenates were centrifuged at 13,000 g for 20 min at 4 °C to remove tissue debris. Whole blood samples were fractionated into plasma (serum + platelets) and blood cells (red and white blood cells) by centrifugation at 1200 g. Cellular blood components were lysed with lysis buffer (5 mmol/L Na o-vanadate, 10 mg/mL benzamidine, 1 mmol/L phenylmethylsulfonyl fluoride (PMSF), 10 mmol/L Tris HCl, 5 mmol/L ethylenediamine tetraacetic acid (EDTA), 50 mmol/L NaCl pH 7.4 and 3.5 mmol/L SDS) at a volume ratio of 1:5 cells: lysis buffer. These samples were centrifuged at 13,000 g for 20 min at 4 °C. Protein content of each sample was quantified using the Bradford assay.
Quantification of total NOx was performed according to a method described by Verdon et al.. Briefly, samples were de-proteinated by mixing the sample with 0.3 mol/L NaOH and aqueous 0.27 mol/L ZnSO4 at a volume ratio of 1:1:2. NOx was determined in 50 μL de-proteinated sample in the form of nitrite using the colorimetric Griess method, [28]. The amount of nitrite in each sample was calculated from a linear calibration curve of known nitrite concentrations (linear range: 1–100 μmol/L) and normalized for total amount of protein (mg), quantified using the Bradford assay. The final concentration, expressed as μM nitrite/mg protein, represents the total NOx in the system. Any remaining nitrite in the infusate (drug solution administered) was not measured as we were more interested in in vivo changes in NOx levels in untreated versus different treated groups at different time points measured but we have previously characterized this.

[5] = 10 μmol/L, human plasma and whole blood ex vivo
[6] = inhaled or intranasal, 1 umol/kg

| NOx tmax Heart [3] | NOx tmax Liver [3] | NOx tmax Lung [3] | NOx tmax Plasma [3] | Tmax (time at which the maximum response occurred) (CD-1 mice; male, CD-1, mouse) | NOx tmax Heart [4] | NOx tmax Liver [4] | NOx tmax Lung [4] | NOx tmax Plasma [4] | Molecule | half-life [1] | decomposition within the first 5 min [2, 5] | time to full decomposition [2, 5] | other results |
| --- | --- | --- | --- | --- | --- | --- | --- | --- | --- | --- | --- | --- | --- |
| – | – | – | – | – | – | – | – | – | S-nitrosated cysteine [CySNO] | about 5 min | ~85% | ≤ 15 min | Half-life of decomposition ([2]; human): approximately 50 s |
| 1 min | 3 min | 1 min | 1 min | 0.083 min | 5 min | 5 min | 1 min | 5 min | N[C@@H](CCC(=O)N[C@@H](CSN=O)C(=O)N[C@@H](CCC(=O)N[C@@H](CSN=O)C(=O)NCC(=O)O)C(=O)O)C(=O)O [SNOPC-2] | – | – | – | – |
| 1 min | 5 min | 1 min | 3 min | 0.083 min | 5 min | 5 min | 1 min | 5 min | N[C@@H](CCC(=O)N[C@@H](CSN=O)C(=O)N[C@@H](CCC(=O)N[C@@H](CSN=O)C(=O)N[C@@H](CCC(=O)N[C@@H](CSN=O)C(=O)N[C@@H](CCC(=O)N[C@@H](CSN=O)C(=O)N[C@@H](CCC(=O)N[C@@H](CSN=O)C(=O)N[C@@H](CCC(=O)N[C@@H](CSN=O)C(=O)NCC(=O)O)C(=O)O)C(=O)O)C(=O)O)C(=O)O)C(=O)O)C(=O)O [SNOPC-6] | – | – | – | – |
| – | – | – | – | – | – | – | – | – | N[C@@H](CCC(=O)N[C@@H](CSN=O)C(=O)NCC(=O)O)C(=O)O [GSNO, S-nitrosoglutathione] | about 5 min | ~85% | ≤ 15 min | NOx tmax Heart ([3]; 1 umol/kg): 3 min; NOx tmax Liver ([3]; 1 umol/kg): 5 min; NOx tmax Lung ([3]; 1 umol/kg): 1 min; NOx tmax Plasma ([3]; 1 umol/kg): 1 min; Half-life of decomposition [2, 5]: ~2 min; reduction in blood pressure (CD-1 mice; i.v., 1 μmol NO/kg body weight, CD-1 mice, compared to saline): 30–35%; Tmax (time at which the maximum response occurred) (CD-1 mice; mouse): 0.083 min; NOx tmax Heart [4, 6]: 5 min; NOx tmax Liver [4, 6]: 5 min; NOx tmax Lung [4, 6]: 1 min; NOx tmax Plasma [4, 6]: 5 min |
